The results in this text go back to ChEMBL document CHEMBL2407091, “Effect of the orthoquinone moiety in 9,10-phenanthrenequinone on its ability to induce apoptosis in HCT-116 and HL-60 cells” (2013).

The source made the active and inactive calls. The rule behind the calls is not given here.

The subject of assay [1] is HL-60. Kind of assay: Cytotoxicity against human HL60 cells after 24 hrs by WST-1 assay. It is filed as functional. As to conditions: HL-60, 24 h, read-out: LC50 (the source's name). For orientation: Formazan colour is commonly taken as a measure of viable cells.
Assay [2] concerns HCT-116. Kind of assay: Cytotoxicity against human HCT116 cells after 24 hrs by MTT assay. Type of assay: functional. The settings on record: HCT-116, 24 h, read-out: LC50 (the source's name).
In assay [3] the test system is HL-60. Description: Induction of apoptosis in human HL60 cells assessed as caspase-3 activation at 10 uM after 4 hrs by FACS flow cytometric analysis. Type of assay: functional, cell-based.
Assay [4] concerns HL-60. Description: Induction of apoptosis in human HL60 cells assessed as DNA fragmentation at 10 uM after 6 hrs by electrophoretic analysis. Type of assay: functional, cell-based.
Assay [5] has as its system HCT-116. Kind of assay: Cytotoxicity against human HCT116 cells at >2.5 uM after 24 hrs by MTT assay. Type of assay: functional, cell-based.
Assay [6] deals with HL-60. Kind of assay: Cytotoxicity against human HL60 cells at 5 uM after 24 hrs by WST-1 assay. It is filed as functional, cell-based.

As to `O=C1C(=O)c2cccnc2-c2ncccc21`, the CC50 with HL-60 [1] stood at 1.57 µM; in the assay with HCT-116 [2] it was 0.73 µM. Also, the outcome with HL-60 [3] and in the assay on HL-60 [4] was Active.

On to `O=C(C(=O)c1ccccc1)c1ccccc1` [BENZIL], for which the CC50 in the assay with HL-60 [1] and in the assay with HCT-116 [2] was over 10 µM each time.

In the case of `O=c1c(=O)c2cccc3ccc4cccc1c4c32`, the CC50 with HL-60 [1] came to 3.41 µM; with HCT-116 [2], 0.86 µM. The result with HL-60 [3] and with HL-60 [4] was Active.

For `O=C1C=Cc2ccccc2C1=O` [1,2-NAPHTHOQUINONE], the CC50 in the assay on HL-60 [1] came to 7.14 µM; in the assay with HCT-116 [2] it was 9.2 µM.

Take `O=c1[nH]c2ccccc2c2ccccc12`: the CC50 in the assay with HL-60 [1] and in the assay on HCT-116 [2] was over 10 µM throughout.

Take `c1ccc2c(c1)ccc1ccccc12` [PHENANTHRENE]: the CC50 in the assay on HL-60 [1] and with HCT-116 [2] was over 10 µM each time.

Take `O=C1C(=O)c2ccccc2-c2ccccc21` [9,10-PHENANTHRENEQUINONE]: the CC50 came to 3.38 µM in the assay on HL-60 [1] and 1.43 µM in the assay on HCT-116 [2]. The outcome with HCT-116 [5], with HL-60 [3], in the assay on HL-60 [4] and with HL-60 [6] was Active.

Turning to `O=C1C(=O)c2cccc3cccc1c23` [ACENAPHTHOQUINONE], the CC50 in the assay on HL-60 [1] and in the assay with HCT-116 [2] was over 10 µM throughout.

For `c1ccc2c(c1)CCc1ccccc1-2` [DIHYDROPHENANTHRENE], the CC50 in the assay on HL-60 [1] and in the assay with HCT-116 [2] was over 10 µM throughout.

`Oc1cc2ccccc2c2ccccc12`: the CC50 in the assay with HL-60 [1] and with HCT-116 [2] was over 10 µM in each case.
